{
  "source": "patent US9723844B2",
  "about": "“Synergistic Bacillus thuringiensis subsp. aizawai, Bacillus thuringiensis subsp. kurstaki and chlorantraniliprole mixtures for diamondback moth, beet armyworm, sugarcane borer, soybean looper, corn earworm, cabbage looper, and southwestern corn borer control” (Valent BioSciences Corporation, priority 2015, dated 2017)",
  "key": {"[1]": {"test_system": "southwestern corn borer larvae", "experiment": "Leaf dip test, southwestern corn borer larvae", "assay_type": "in vivo, Diatraea grandiosella", "details": "foliar, Bta/Btk 1.69 ppm, chlorantraniliprole 0.0009 ppm, read-out: % Efficacy", "from_the_text": "(§1) The following examples were used to determine the synergy of Bacillus thuringiensis subsp. aizawai, Bacillus thuringiensis subsp. kurstaki and chlorantraniliprole when controlling diamondback moth, beet armyworm, sugarcane borer, soybean looper, corn earworm, cabbage looper, and southwestern corn borer. Sympatico™ emulsifiable suspension (available from Valent BioSciences Corporation) was used as the source of Bacillus thuringiensis subsp. aizawai and Bacillus thuringiensis kurstaki. Sympatico™ contains about a 1:0.67 ratio of Bacillus thuringiensis subsp. kurstaki fermentation solids, spores and toxins to Bacillus thuringiensis subsp. aizawai fermentation solids, spores and toxins. Coragen® was used as the source of chlorantraniliprole. The present invention is not limited to the commercial products used in the examples. In each example below, the studies were conducted as follows.\n(§2) For these tests, standardized laboratory leaf dip methods were used to inoculate plant material with treatment(s). Dry, treated leaves were placed into Petri dishes (100×25 mm) containing filter paper wetted with 500 μl of distilled H2O (“dH2O”). Each dish was then infested with between 5 and 10 larvae, dependent on species. Efficacy ratings were taken at specified intervals. Synergy ratings were calculated for each test. […]"}, "[2]": {"test_system": "cabbage looper larvae", "experiment": "Leaf dip test, cabbage looper larvae", "assay_type": "in vivo", "details": "Trichoplusia ni, foliar, Bta/Btk 1.69 ppm, chlorantraniliprole 0.0009 ppm, read-out: % Efficacy", "from_the_text": "as §1, §2"}, "[3]": {"test_system": "soybean looper larvae", "experiment": "Leaf dip test, soybean looper larvae", "assay_type": "in vivo, Chrysodeixis includens", "details": "foliar, Bta/Btk 0.54 ppm, chlorantraniliprole 0.045 ppm, read-out: % Efficacy", "from_the_text": "as §1, §2"}, "[4]": {"test_system": "sugarcane borer larvae", "experiment": "Leaf dip test, sugarcane borer larvae", "assay_type": "in vivo", "details": "Diatraea saccharalis, foliar, Bta/Btk 1.69 ppm, chlorantraniliprole 0.0009 ppm, read-out: % Efficacy", "from_the_text": "as §1, §2"}, "[5]": {"test_system": "corn earworm larvae", "experiment": "Leaf dip test, corn earworm larvae", "assay_type": "in vivo", "details": "Helicoverpa zea, foliar, Bta/Btk 5.4 ppm, chlorantraniliprole 0.0009 ppm, read-out: % Efficacy", "from_the_text": "as §1, §2"}, "[6]": {"test_system": "beet armyworm larvae", "experiment": "Leaf dip test, beet armyworm larvae", "assay_type": "in vivo", "details": "Spodoptera exigua, foliar, Bta/Btk 1.69 ppm, chlorantraniliprole 0.0009 ppm, read-out: % Efficacy", "from_the_text": "as §1, §2"}, "[7]": {"test_system": "diamondback moth larvae", "experiment": "Leaf dip test, diamondback moth larvae", "assay_type": "in vivo", "details": "Plutella xylostella, foliar, Bta/Btk 1.69 ppm, chlorantraniliprole 0.0009 ppm, read-out: % Efficacy", "from_the_text": "as §1, §2"}},
  "note": "Like-named read-outs stand apart in the source and are kept apart here.",
  "data": [
    {"compound": "CNC(=O)c1cc(Cl)cc(C)c1NC(=O)c1cc(Br)nn1-c1ncccc1Cl", "note": "[Chlorantraniliprole]", "values": [
      {"measurement": "Emax at 0.0009 ppm", "setting": "[1]; 24 h after treatment", "value": 3, "unit": "%"},
      {"measurement": "Emax at 0.0009 ppm", "setting": "[1]; 48 h after treatment", "value": 3, "unit": "%"},
      {"measurement": "Emax at 0.0009 ppm", "setting": "[2]; 24 h after treatment", "value": 3, "unit": "%"},
      {"measurement": "Emax at 0.0009 ppm", "setting": "[2]; 48 h after treatment", "value": 10, "unit": "%"},
      {"measurement": "Emax at 0.045 ppm", "setting": "[3]; 24 h after treatment", "value": 3, "unit": "%"},
      {"measurement": "Emax at 0.045 ppm", "setting": "[3]; 48 h after treatment", "value": 14, "unit": "%"},
      {"measurement": "Emax at 0.0009 ppm", "setting": "[4]; 24 h after treatment", "value": 3, "unit": "%"},
      {"measurement": "Emax at 0.0009 ppm", "setting": "[4]; 48 h after treatment", "value": 13, "unit": "%"},
      {"measurement": "Emax at 0.0009 ppm", "setting": "[5]; 24 h after treatment", "value": 3, "unit": "%"},
      {"measurement": "Emax at 0.0009 ppm", "setting": "[5]; 48 h after treatment", "value": 3, "unit": "%"},
      {"measurement": "Emax at 0.0009 ppm", "setting": "[6]; 24 h after treatment", "value": 3, "unit": "%"},
      {"measurement": "Emax at 0.0009 ppm", "setting": "[6]; 48 h after treatment", "value": 7, "unit": "%"},
      {"measurement": "Emax at 0.0009 ppm", "setting": "[7]; 24 h after treatment", "value": 7, "unit": "%"},
      {"measurement": "Emax at 0.0009 ppm", "setting": "[7]; 48 h after treatment", "value": 13, "unit": "%"}
    ]}
  ]
}
